Reference: BindingDB's records for doi:10.1021/acs.jmedchem.1c00019 (National Center For Advancing Translational Sciences, 2021)
Where “and” joins values, the source holds several entries; their conditions need not be identical. Identical values can stand only once.

Experiments:
[1] = target: T1, Isocitrate dehydrogenase [NADP] cytoplasmic (Homo sapiens, UniProt O75874); experiment: Inhibition of IDH1 R132C mutant (unknown origin) assessed as reduction in NADPH consumption using alpha-KG as substrate incubated for 5 mins by diaphorase/resazurin-coupled system
Target sequence in this assay (O75874 2-414 R132C limits assumed): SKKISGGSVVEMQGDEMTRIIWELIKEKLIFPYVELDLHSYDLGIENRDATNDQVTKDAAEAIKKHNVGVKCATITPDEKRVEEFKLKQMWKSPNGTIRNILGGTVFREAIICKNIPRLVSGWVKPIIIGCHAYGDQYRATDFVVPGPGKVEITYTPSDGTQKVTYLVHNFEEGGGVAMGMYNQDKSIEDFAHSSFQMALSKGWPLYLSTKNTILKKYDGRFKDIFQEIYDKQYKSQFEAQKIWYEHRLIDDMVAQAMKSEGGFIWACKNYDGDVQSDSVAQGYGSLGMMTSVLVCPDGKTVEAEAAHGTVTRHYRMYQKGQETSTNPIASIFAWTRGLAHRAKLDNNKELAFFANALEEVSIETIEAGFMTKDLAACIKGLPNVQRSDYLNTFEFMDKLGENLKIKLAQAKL

[2] = target: T1, Isocitrate dehydrogenase [NADP] cytoplasmic; experiment: Inhibition of IDH1 R132H mutant (unknown origin) assessed as reduction in NADPH consumption using alpha-KG as substrate incubated for 5 mins by diaphorase/resazurin-coupled system
Target sequence in this assay (O75874 2-414 R132H limits assumed): as the sequence (O75874 2-414 R132C limits assumed) above, with C131H counted along it

SMILES	IC50 [1]	IC50 [2]
CCc1ccc(OC)cc1-n1c(C=C(C)C)c(C(=O)N2CCNCC2)cc(-c2nc(-c3ccc(Cl)cc3)cs2)c1=O	130 nM	
CCc1ccc(Cl)cc1-n1c(C=C(C)C)c(C(=O)N2CCNCC2)cc(-c2nc(-c3ccc(Cl)cc3)cs2)c1=O	100 nM and 72 nM	114 nM and 81 nM
